Experimental findings from patent publication US20260274807A1 (University of Health Sciences and Pharmacy in St. Louis, priority 2023, published 2026) are described below.

The target in one experiment is T1, ERRα (Homo sapiens, UniProt P11474).
T1 construct: expressed in transfected cells; host or cells: HEK293
T1 sequence (P11474 1-423): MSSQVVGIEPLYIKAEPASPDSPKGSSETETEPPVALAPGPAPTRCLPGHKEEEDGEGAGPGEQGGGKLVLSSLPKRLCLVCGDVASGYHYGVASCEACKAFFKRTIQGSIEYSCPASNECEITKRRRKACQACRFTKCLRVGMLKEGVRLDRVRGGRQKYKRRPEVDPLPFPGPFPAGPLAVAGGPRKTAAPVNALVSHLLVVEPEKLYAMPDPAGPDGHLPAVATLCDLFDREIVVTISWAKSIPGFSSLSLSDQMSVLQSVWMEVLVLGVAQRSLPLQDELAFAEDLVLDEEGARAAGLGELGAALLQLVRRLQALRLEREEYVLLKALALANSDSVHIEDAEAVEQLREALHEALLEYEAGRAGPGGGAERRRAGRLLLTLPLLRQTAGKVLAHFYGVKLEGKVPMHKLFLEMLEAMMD
The experiment can be described thus: ERRE luciferase reporter assay in HEK293 cells transfected with pcDNA3.1 ERRα. The experiment is classed as cell-based. The note with it: HEK293 cells transfected with ERRE reporter construct and pcDNA3.1 ERRα; compound for 24 hours; luciferase activity. The method, then: (§1) HEK293 cells were maintained in Dulbecco's modified Eagles medium (DMEM) supplemented with 10% fetal bovine serum at 37° C. under […]. […] Cells were transfected with ERRE reporter construct and pcDNA3.1 ERRα or ERRγ. Twenty-four-hours post-transfection, the cells were treated with vehicle or compound (various concentrations) for 24 hours (4 wells per dose). Luciferase activity was measured using the One-Glo Tox luciferase reporter assay system (Promega) and EC50s were calculated using GraphPad Prism software.
A general note: Reporter assays use an easily measured gene product as a stand-in for the process of interest.

The next experiment deals with T2, ERRγ (Homo sapiens, UniProt P62508).
T2 construct: expressed in transfected cells; host or cells: HEK293
T2 sequence (P62508 1-458): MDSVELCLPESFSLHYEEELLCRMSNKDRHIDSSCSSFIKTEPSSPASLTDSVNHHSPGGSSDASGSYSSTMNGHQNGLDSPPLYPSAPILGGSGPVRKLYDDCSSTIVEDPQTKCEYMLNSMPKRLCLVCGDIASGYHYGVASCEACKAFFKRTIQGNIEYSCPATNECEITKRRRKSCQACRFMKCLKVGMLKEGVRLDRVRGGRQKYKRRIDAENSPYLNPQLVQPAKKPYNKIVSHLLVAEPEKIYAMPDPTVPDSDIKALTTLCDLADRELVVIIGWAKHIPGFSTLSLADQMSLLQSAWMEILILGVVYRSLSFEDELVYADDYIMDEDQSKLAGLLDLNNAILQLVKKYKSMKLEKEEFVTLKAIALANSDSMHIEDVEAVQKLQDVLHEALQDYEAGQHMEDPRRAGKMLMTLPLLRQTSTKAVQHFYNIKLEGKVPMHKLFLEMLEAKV
The experiment can be described thus: ERRE luciferase reporter assay in HEK293 cells transfected with pcDNA3.1 ERRγ. The class given is cell-based. To be noted: HEK293 cells transfected with ERRE reporter construct and pcDNA3.1 ERRγ; compound for 24 hours; luciferase activity. The method, then:
as §1

Turning to `COc1ccc(-c2nnc(-c3ccccc3[N+](=O)[O-])o2)cc1` [Entry 82, 2-(4-methoxyphenyl)-5-(2-nitrophenyl)-1,3,4-oxadiazole], the EC50 at ERRα and at ERRγ was under 1000 nM in each case.
Take `CC(C)(C)c1ccc(-c2nnc(-c3ccccc3[N+](=O)[O-])o2)cc1` [Entry 83, 2-(4-(tert-butyl)phenyl)-5-(2-nitrophenyl)-1,3,4-oxadiazole]: the concentration for a half-maximal effect (EC50) at ERRα and at ERRγ was under 1000 nM each time.
Regarding `O=[N+]([O-])c1ccc(Br)cc1-c1nnc(-c2ccccc2)o1` [Entry 84, 2-(5-bromo-2-nitrophenyl)-5-phenyl-1,3,4-oxadiazole], the EC50 at ERRα and at ERRγ was over 5000 nM in each case.
On to `COc1ccc(-c2nnc(-c3ccccc3)o2)c([N+](=O)[O-])c1` [Entry 86, 2-(4-methoxy-2-nitrophenyl)-5-phenyl-1,3,4-oxadiazole], for which the concentration for a half-maximal effect (EC50) on ERRα and on ERRγ was under 1000 nM in each case.
As to `COc1ccc([N+](=O)[O-])c(-c2nnc(-c3ccccc3)o2)c1` [Entry 87, 2-(5-methoxy-2-nitrophenyl)-5-phenyl-1,3,4-oxadiazole], the values for the EC50 at ERRα and on ERRγ were 1000 to 5000 nM and over 5000 nM, respectively.
For `COc1cccc(-c2nnc(-c3ccccc3)o2)c1[N+](=O)[O-]` [Entry 88, 2-(3-methoxy-2-nitrophenyl)-5-phenyl-1,3,4-oxadiazole] the same measures were under 1000 nM and under 1000 nM.
For `Cc1cccc(-c2nnc(-c3ccccc3)o2)c1[N+](=O)[O-]` [Entry 89, 2-(3-methyl-2-nitrophenyl)-5-phenyl-1,3,4-oxadiazole] the same measures were under 1000 nM and under 1000 nM.
For `O=[N+]([O-])c1c(Cl)cccc1-c1nnc(-c2ccccc2)o1` [Entry 90, 2-(3-chloro-2-nitrophenyl)-5-phenyl-1,3,4-oxadiazole] the same measures were 1000 to 5000 nM and 1000 to 5000 nM.
Regarding `O=[N+]([O-])c1ccccc1-c1nnc(-c2ccc(Cl)cc2)o1` [Entry 92, 2-(4-chlorophenyl)-5-(2-nitrophenyl)-1,3,4-oxadiazole], the EC50 on ERRα and at ERRγ was over 5000 nM throughout.
`COc1ccc(-c2nnc(-c3ccccc3)s2)cc1` [Entry 1001, 2-(4-methoxyphenyl)-5-phenyl-1,3,4-thiadiazole]: the EC50 at ERRα and on ERRγ was under 1000 nM in each case.
In the case of `Cc1ccc(-c2nnc(-c3ccccc3)s2)cc1` [Entry 1002, 2-phenyl-5-(p-tolyl)-1,3,4-thiadiazole], the EC50 on ERRα and on ERRγ was under 1000 nM in each case.
`Cc1ccc(-c2nnc(-c3ccccc3Cl)s2)cc1` [Entry 1003, 2-(2-chlorophenyl)-5-(p-tolyl)-1,3,4-thiadiazole]: the EC50 at ERRα and on ERRγ was under 1000 nM each time.
Take `c1ccc(-c2nnc(-c3ccccc3)s2)cc1` [Entry 1004, 2,5-diphenyl-1,3,4-thiadiazole]: the EC50 at ERRα and on ERRγ was under 1000 nM in each case.
As to `Cc1ccc(-c2nnc(-c3ccccc3[N+](=O)[O-])s2)cc1` [Entry 1005, 2-(2-nitrophenyl)-5-(p-tolyl)-1,3,4-thiadiazole], the half-maximal effective concentration (EC50) at ERRα and on ERRγ was under 1000 nM in each case.
On to `c1ccc(-c2nnc(C3CCCCC3)s2)cc1` [Entry 1006, 2-cyclohexyl-5-phenyl-1,3,4-thiadiazole], for which the concentration for a half-maximal effect (EC50) on ERRα and at ERRγ was under 1000 nM each time.
For the molecule `c1ccc(-c2nnc(C34CC5CC(CC(C5)C3)C4)s2)cc1` [Entry 1007, 2-((1S,3S)-adamantan-1-yl)-5-phenyl-1,3,4-thiadiazole], the EC50 at ERRα and on ERRγ was under 1000 nM throughout.
`FC(F)(F)c1cccc(-c2nnc(-c3ccccn3)s2)c1` [Entry 1008, 2-(pyridin-2-yl)-5-(3-(trifluoromethyl)phenyl)-1,3,4-thiadiazole]: the EC50 at ERRα and on ERRγ was under 1000 nM each time.
